Assay results as given in patent US20250312289A1, “METHODS AND COMPOSITIONS COMPRISING TOBACCO MILD GREEN MOSAIC VIRUS (TMGMV)” (priority 2022, published 2025).

Tests used:
[1] = cited from earlier work
β-CD-TMGMV = experiment: Doxorubicin competition (displacement) assay for loading onto β-CD-TMGMV; assay type: binding; settings: competitor at 1000 eq, overnight at 4° C.
Description: To assess loading of pesticides to β-CD-TMGMV, competition assays were completed between Doxorubicin (ApexBio) and the target molecules. Samples of 100 μL volume were prepared in a 96-well plate (Costar). For sample wells, 0.0825 mg of β-CD-conjugated TMGMV in KP buffer were added to the wells, in addition with doxorubicin at 10 eqβ-CD-TMIGMV (molar equivalents to β-CD-conjugated TMGMV).
Three control conditions were utilized: 1 eq TMGMV, 575 eq β-CD, and 1 eq TMGMV with 575 eq β-CD (non-conjugated). These control wells also received doxorubicin at 10 eq. The plate was incubated overnight at 4° C. on a plate rocker (Fisher). Fluorescence top readings were conducted on the plate (excitation 470 nm, emission 595 nm, 25 flashes) via UV-Vis Plate Reader (Tecan infinite 200Pro). […] Following a repeat overnight incubation at 4° C. on a plate rocker (Fisher), fluorescent reading was repeated as before.
Samples of 100 μL volume were prepared in a 96-well plate (Costar). For sample wells, 0.0825 mg of β-CD-conjugated TMGMV in KP buffer were added to the wells, in addition with doxorubicin at 10 eq (molar equivalents to β-CD-conjugated TMGMV). […] Fluorescence top readings were then conducted on the plate (excitation 470 nm, emission 595 nm, 25 flashes) via UV-Vis Plate Reader (Tecan infinite 200Pro). […] The fluorescence was then read on the plate reader as described before. […]

TMGMV [2] = experiment: Quantification of loaded AI in TMGMV by HPLC; assay type: physicochemical, Tobacco Mild Green Mosaic Virus; settings: for Detected in sample / Molecules per CP / Molecules per virion: HPLC
Description: (§1) Loading of AI into TMGMV via the “pH method” was performed. TMGMV at a concentration of 1 mg mL^−1 in 10 mM KP buffer at pH 7.5 was kept for 10 days at 4° C. The following AIs were used: fluopyram and clothianidin, (BASF, Berkeley, CA, USA), rifampicin and ivermectin (BioVision; Milpitas, CA, USA). Cy5 (Lumiprobe; Cockeysville, MD, USA) and doxorubicin (ApexBio; Houston, TX, USA) were also studied as proof of concept (fluorescent molecule and cancer chemotherapy). The AI was added to TMGMV by adding an excess of 10:1 AI:coat protein (CP; each TMGMV rod is assembled from ˜2,100 identical CPs) every day until a ratio of 100:1 was reached. During this process the reaction was kept mixing on a rotary shaker. 1 mL aliquots were obtained each day for further analysis.
After AI loading, the aliquots were spin-filtered using 100K molecular weight cut-off 0.5 mL filters (MilliporeSigma, Burlington, MA, USA). 200 μL of the aliquot and 250 μL of KP solution were added and then centrifuged at 16,160×g for 5 minutes at 4° C., the flow-through was discarded, and then 450 μL of KP was added and centrifuged again, this step was repeated 3 times. After the third centrifugation, the filter was inverted in a new tube and centrifuged at 1000×g for 2 minutes, to recover the supernatant and carry out the subsequent characterization.
(§2) Loading of AI into TMGMV via the “DMSO method” was performed. TMGMV in 10 mM KP buffer (pH 7.2) was diluted to 5 mg mL-1 in 2 mL of buffer and transferred to a 25 mL beaker and magnetically stirred at 300 rpm at room temperature. A solution of DMSO and 10 mM KP was added dropwise to dilute the solution to a 20% (v/v) concentration of DMSO and 2 mg mL-1 of TMGMV. Aliquots of the AIs were added dropwise to the solution to prevent precipitation. The solutions were left to stir at room temperature for 24 hours. The samples were collected and spin filtered as described above before being stored at 4° C.
For HPLC, AI was extracted from TMGMV. In brief, the concentration of TMGMV samples was adjusted to 1.2 mg mL-1 in KP. The solution was diluted 4-fold into a 1:1 acetonitrile/:methanol mixture and vortexed for 30 seconds. The solution was centrifuged at 10,000×g for 10 minutes at 4° C. and the organic phase (bottom fraction) was collected and transferred to an HPLC 2 mL glass screw top vial (SureSTART, Thermo Scientific, Waltham, MA, USA).
After a 10-fold dilution in acetonitrile, the extracted samples were injected at 500 μL and run on 5 μm C18 column (20×100 mm) using a Shimadzu LC-40 HPLC system (Columbia, MD, USA). The method was run at 0.5 mL min-1 in a gradient of acetonitrile and 0.02% (v/v) phosphoric acid for 15 minutes per sample. A photodiode array was used to collect absorbance values at 280 nm (fluopyram), 269 nm (clothianidin), 225 nm (ivermectin), and 330 nm (rifampicin). The absorbance values were fitted to a standard curve to identify sample concentration with N=3.

TMGMV [3] = experiment: TEM/ImageJ width of TMGMV infused with AI by partial dissociation (breathing), Example 3; assay type: physicochemical, Tobacco Mild Green Mosaic Virus; settings: pH 7.5, 5 days, 500:1 equivalence ratio; TEM; control 18 nm
Description: TMGMV at a concentration of 5 mg mL^−1 in KP buffer at pH 7.5 was kept for 5 days at 4° C. Addition of the target AI to the solution was done every 24 h until reaching a 500:1 equivalence ratio and left mixing on a rotary shaker. Afterwards, the solution was centrifuged at 50,000 rpm in the tabletop ultracentrifuge (Beckman Optima MAX-XP with TLA-55 rotor) for 1 hour on a sucrose cushion (30% w/v). The viral pellet was then resuspended in 10 mM KP pH 7 overnight at 4° C. on a rotary shaker. After total resuspension, the solution was dialyzed for 48 h to remove excess (non-entrapped) AI.
Samples were diluted to the concentration of 0.05 mg mL^−1 and absorbed onto carbon-coated TEM grids (Electron Microscopy Sciences). The grids were then washed three times with pure water. Then, grids were stained by 2% (w/v) uranyl acetate for 2 min for imaging. TEM was conducted using a FEI Tecnai F30 transmission electron microscope operated at 300 kV.
Experiments were conducted to load pesticides into TMGMV by strategically altering the pH. Without being bound by theory, this entraps Als through the formation of “pockets” between coat proteins (CPs). Without being bound by theory, the rationale is that by increasing the pH of the buffer, the virus will start to dissociate and hydrophobic pockets will get created between the virion's coat proteins. AIs are then added to interact with the virus particles and then the pH is decreased to promote particles' self-assembly and entrapment of AI on the hydrophobic pockets (see schematic of FIG. 7). As discussed above, TMGMV at a concentration of 5 mg mL-1 in KP buffer at pH 7.5 was kept for at 4° C. for 5 days, and the target AI was added to the solution every 24 h until reaching a 500:1 equivalence ratio. Afterwards, the solution was centrifuged at 50,000 rpm for 1 hour on a sucrose cushion (30% w/v). The viral pellet was then resuspended in 10 mM KP pH 7 overnight at 4° C., and after total resuspension, the solution was dialyzed for 48 h to remove excess (non-entrapped) AI. Samples were then observed at TEM and analyzed using ImageJ.
To determine the change in width (breathing/infusion) of the nanoparticles, the width of sections of 100 nm in length of nanoparticles (as shown in the micrography of FIG. 8) was measured. This was done to standardize the measurements and determine the change in width. At least 5 different sections were measured per micrography, and at least 30 sections were measured in total per sample.

TMGMV [4] = experiment: Quantitative TEM width analysis of AI-loaded TMGMV prepared via pH and DMSO methods, Example 6; assay type: physicochemical, Tobacco Mild Green Mosaic Virus; settings: negative-stain TEM, native 15.7 nm; for maximum width of AI-loaded TMGMV: pH and DMSO methods
Description: as §1, §2
TMGMV samples were diluted to a concentration of 0.05 mg mL-1 and absorbed onto carbon-coated TEM grids (Electron Microscopy Sciences, Hatfield, PA, USA). The grids were then washed three times with pure water. Then, grids were stained by 2% (w/v) uranyl acetate for 90 seconds. TEM was conducted using a FEI Tecnai F30 transmission electron microscope operated at 300 kV. Image analysis was performed using ImageJ software (https://imagej.nih.gov/ij/download.html). To determine the change in width of the nanoparticles, the width of sections of 100 nm in length was measured for standardization purposes. Five different sections were measured per micrography and 30 of them in total per sample. Subsequently, for the complete particle, the length, the perimeter and the area were measured, to later calculate the average width from the perimeter.
TEM imaging and quantitative TEM imaging analysis of the AI-loaded TMGMV nanoparticles prepared by the pH method and the DMSO method was performed. […] To gain insights into the degree of structural changes, quantitative TEM image analysis was performed comparing native vs. the AI-laden TMGMV. Based on the negative stain, native virions were 15.7 nm in width in average (±1.9 nm), which is an underestimation to native TMGMV of 18 nm. This may be due to the uranyl acetate negative staining yielding a heavy shadow on the borders of the virion, apparently reducing its width. While there was no statistical significance between the controls that underwent both methodologies (FIG. 27), for each compound the increment (in comparison to native TMGMV) was different, as well as between methodologies (FIG. 17A).

TMGMV [5] = experiment: Size exclusion chromatography with absorbance (Beer-Lambert) loading determination; assay type: physicochemical, Tobacco Mild Green Mosaic Virus; settings: SEC absorbance 480 nm / 647 nm, Beer-Lambert law
Description: TMGMV samples (500 μL at 0.5 mg/mL) were analyzed using a Superose6 Increase 100 GL column and an AKTA Pure25 chromatography system (GE Healthcare, Chicago, Il, USA) using a flow rate 0.5 mL/min in 10 mM KP (pH 7.4). […]
Size exclusion chromatography (SEC) was performed to further verify structural integrity of the AI-laden TMGMV particles during post-processing and purification.

[6] = DMSO method (20% v/v, 24 hours)

## CN/C(=N\[N+](=O)[O-])NCc1cnc(Cl)s1 [Clothianidin, clothianidin]
[1]
  logP: 1.3
β-CD-TMGMV
  doxorubicin initially bound to β-CD-TMGMV displaced: 17.60%
TMGMV [2]; 24 hour DMSO vs 10-day pH
  less loading using DMSO method vs pH method: about 10%
TMGMV [2]; [6]
  Detected in sample: 2.06 µg/mL
  Molecules per CP: 0.47
  Molecules per virion: 995
TMGMV [2]; pH method (pH 7.5, 10 days)
  Detected in sample: 2.29 µg/mL
  Molecules per CP: 0.52
  Molecules per virion: 1107.55
TMGMV [3]
  average width of infused TMGMV: 26 nm
  increase in width vs native TMGMV control: 38%
TMGMV [4]
  width increase compared to negatively-stained native TMGMV: 65%

## COc1cccc2c1C(=O)c1c(O)c3c(c(O)c1C2=O)C[C@@](O)(C(=O)CO)C[C@@H]3O[C@H]1C[C@H](N)[C@H](O)[C@H](C)O1 [Doxorubicin, doxorubicin]
[1]
  logP: 0.02
TMGMV [5]
  loading, molecules per TMGMV: ~615
TMGMV [3]
  average width of infused TMGMV: 35 nm
  increase in width vs native TMGMV control: 89%

## O=C(NCCc1ncc(C(F)(F)F)cc1Cl)c1ccccc1C(F)(F)F [Fluopyram, fluopyram]
[1]
  logP: 3.33
β-CD-TMGMV
  doxorubicin initially bound to β-CD-TMGMV displaced: 18.34%
TMGMV [2]; 24 hour DMSO vs 10-day pH
  increase in loading using DMSO method vs pH method: 11.7 fold
TMGMV [2]; [6]
  Detected in sample: 0.61 µg/mL
  Molecules per CP: 0.087
  Molecules per virion: 185.59
TMGMV [2]; pH method (pH 7.5, 10 days)
  Detected in sample: 0.05 µg/mL
  Molecules per CP: 0.007
TMGMV [3]
  average width of infused TMGMV: 22 nm
  increase in width vs native TMGMV control: 21%
TMGMV [4]
  width increase compared to negatively-stained native TMGMV: 14%
  maximum width of AI-loaded TMGMV: 18 nm

## CO[C@H]1/C=C/O[C@@]2(C)Oc3c(C)c(O)c4c(O)c(c(/C=N/N5CCN(C)CC5)c(O)c4c3C2=O)NC(=O)/C(C)=C\C=C\[C@H](C)[C@H](O)[C@@H](C)[C@@H](O)[C@@H](C)[C@H](OC(C)=O)[C@@H]1C [Rifampicin, rifampicin]
[1]
  logP: 2.4

## cyanine5 [Cyanine 5]
[1]
  logP: 3.84
TMGMV [5]
  loading, molecules per TMGMV: ~80

## ivermectin
[1]
  logP: 4.4
TMGMV [2]; 24 hour DMSO vs 10-day pH
  increase in loading using DMSO method vs pH method: 21.3 fold
TMGMV [2]; [6]
  Detected in sample: 0.44 µg/mL
  Molecules per CP: 0.029
  Molecules per virion: 61.63
TMGMV [2]; pH method (pH 7.5, 10 days)
  Detected in sample: 0.02 µg/mL
  Molecules per CP: 0.001
  Molecules per virion: 2.89
TMGMV [4]
  width increase compared to negatively-stained native TMGMV: 46%
  maximum width of AI-loaded TMGMV: 23 nm
